Test results taken from patent US20130296363A1, “QUINOLINE AND ISOQUINOLINE DERIVATIVES FOR USE AS JAK MODULATORS” (AMBIT BIOSCIENCES CORPORATION, priority 2010, published 2013).

Tests used:
[1] = test system: GM-CSFR/JAK2/STAT5 pathway in CSTF-1 cells; test: CSTF-1 cell-based reporter assay (beta-lactamase reporter, GM-CSF stimulated); conditions: Homo sapiens, GM-CSF at 2 ng/mL, 4 hours, read-out: Cell Assay: CS TF-1 reporter assay IC50
Experimental: CSTF-1 cells are derived from the human erythroleukemia cell line that is growth dependent on GM-CSF and has an intact GM-CSFR/JAK2/STAT5 pathway. The cell line contains stably integrated beta-lactamase reporter gene under the control of the […] (irf 1) response element recognized by the activated transcription factor STAT5. csTF-1 cells (Invitrogen K1219) were washed with assay media (97% OPTIMEM/0.5% dialyzed FBS/0.1 mM NEAA/1 mM Na pyr/P/S) and seeded in the same media at 5×10^5 cell/mL in T150 flask. After 16 hour incubation, cells were seeded at 2×10^5 cell/well in 50 μl volume, into Costar, clear bottom, 96-well assay plates. Serial dilutions of compounds were added to the plates with final DMSO concentration at 0.5% and GM-CSF at 2 ng/mL and the plates were then incubated at 30° C. and 5% CO2 for 4 hours. The plates were brought to room temperature before adding Substrate Mixture according to manufacturer's protocol (Invitrogen, Catalog #K1085). The assay plates containing the substrate mixture were incubated in the dark at room temperature for 2 hours. Blue and green fluorescence was measured with excitation at 409 nm and emission at 460 nm (for blue) and excitation at 409 nm and emission at 530 nm (for green) using Spectra Max Gemini EM.

[2] = biological target: T1, JAK2 (Homo sapiens, UniProt O60674); test: Competition binding assay to determine Kd against JAK kinases: JAK2
T1 construct: made in house
Experimental: (§1) Competition binding assays used herein were developed, validated and performed as described in Fabian et al., Nature Biotechnology 2005, 23, 329-336. Kinases were produced as fusions to T7 phage (See, Fabian et al. or WO04/015142) or alternatively, the kinases were expressed in HEK-293 cells and subsequently tagged with DNA for PCR detection (See, WO08/005,310). For the binding assays, streptavidin-coated magnetic beads were treated with biotinylated affinity ligands for 30 min at rt to generate affinity resins. The liganded beads were blocked with excess biotin and washed with blocking buffer (SeaBlock (Pierce), 1% BSA, 0.05% Tween 20, 1 mM DTT) to remove unbound ligand and to reduce non-specific binding. Binding reactions were assembled by combining kinase, liganded affinity beads, and test compounds in 1× binding buffer (20% SeaBlock, 0.17×PBS, 0.05% Tween 20, 6 mM DTT). Test compounds were prepared as 100× stocks in DMSO and rapidly diluted into the aqueous environment. DMSO was added to control assays lacking a test compound. Primary screen interactions were performed in polypropylene 384-well plates in a final volume of 34 μL, while Kd determinations were performed in polystyrene 96-well plates in a final volume of 135 μL. The assay plates were incubated at room temperature with shaking for 1 hour, long enough for binding reactions to reach equilibrium, and the affinity beads were washed extensively with wash buffer (1×PBS, 0.05% Tween 20) to remove unbound protein. The beads were then resuspended in elution buffer (1×PBS, 0.05% Tween 20, 2 μM non-biotinylated affinity ligand) and incubated at room temperature with shaking for 30 min. The kinase concentration in the eluates was measured by quantitative PCR. Each kinase was tested individually against each compound. Kds were determined using eleven serial threefold dilutions. A selectivity score, which is a quantitative measure of selectivity of a compound against a panel of enzymes, may be calculated for a compound by dividing the number of enzymes for which a compound meets a set criteria, (for example, a binding constant of 100 nM or less), by the total number of enzymes tested.

[3] = biological target: T2, JAK3 (Homo sapiens, UniProt P52333); test: Competition binding assay to determine Kd against JAK kinases: JAK3
T2 construct: made in house
T2 sequence (P52333 1-1124): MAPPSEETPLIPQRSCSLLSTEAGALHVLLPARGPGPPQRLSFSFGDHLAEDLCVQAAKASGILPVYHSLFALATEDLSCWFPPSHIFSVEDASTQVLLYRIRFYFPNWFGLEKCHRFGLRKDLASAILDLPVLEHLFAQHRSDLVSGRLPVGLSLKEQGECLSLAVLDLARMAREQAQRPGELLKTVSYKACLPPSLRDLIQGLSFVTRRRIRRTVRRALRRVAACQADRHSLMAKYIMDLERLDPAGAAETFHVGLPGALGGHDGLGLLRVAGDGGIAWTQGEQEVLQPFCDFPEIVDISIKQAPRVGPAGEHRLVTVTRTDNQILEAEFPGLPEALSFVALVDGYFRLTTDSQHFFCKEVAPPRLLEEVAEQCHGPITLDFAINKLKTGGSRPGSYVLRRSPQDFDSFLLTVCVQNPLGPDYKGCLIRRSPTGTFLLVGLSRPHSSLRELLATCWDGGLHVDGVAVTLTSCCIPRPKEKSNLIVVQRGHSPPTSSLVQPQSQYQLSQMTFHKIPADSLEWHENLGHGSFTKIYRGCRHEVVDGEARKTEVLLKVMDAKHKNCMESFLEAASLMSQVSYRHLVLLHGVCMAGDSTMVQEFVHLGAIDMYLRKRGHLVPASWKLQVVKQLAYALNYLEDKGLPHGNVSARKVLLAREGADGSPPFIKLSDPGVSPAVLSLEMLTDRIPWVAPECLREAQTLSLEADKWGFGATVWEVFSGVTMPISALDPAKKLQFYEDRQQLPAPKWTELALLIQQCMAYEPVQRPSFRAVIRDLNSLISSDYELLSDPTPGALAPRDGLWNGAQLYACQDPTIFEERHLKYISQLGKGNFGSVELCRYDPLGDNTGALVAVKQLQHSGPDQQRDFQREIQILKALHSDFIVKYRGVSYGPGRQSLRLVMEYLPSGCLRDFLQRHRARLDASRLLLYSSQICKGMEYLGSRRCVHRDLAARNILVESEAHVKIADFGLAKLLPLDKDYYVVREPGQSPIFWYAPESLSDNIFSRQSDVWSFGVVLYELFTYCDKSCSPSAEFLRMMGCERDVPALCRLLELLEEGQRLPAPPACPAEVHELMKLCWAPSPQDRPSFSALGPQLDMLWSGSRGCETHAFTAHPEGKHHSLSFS
Experimental: as §1

[4] = biological target: T3, TYK2 (Homo sapiens, UniProt P29597); test: Competition binding assay to determine Kd against JAK kinases: TYK2
T3 construct: made in house
Experimental: as §1

[5] = test system: panel of distinct kinases excluding mutant variants, typically 359 or 386 kinases; test: Kinase selectivity score S10 from competition binding panel; conditions: compound at 10 μM; fraction of kinases with inhibition of 90% or greater
Experimental: as §1

T3 sequence (P29597 whole entry): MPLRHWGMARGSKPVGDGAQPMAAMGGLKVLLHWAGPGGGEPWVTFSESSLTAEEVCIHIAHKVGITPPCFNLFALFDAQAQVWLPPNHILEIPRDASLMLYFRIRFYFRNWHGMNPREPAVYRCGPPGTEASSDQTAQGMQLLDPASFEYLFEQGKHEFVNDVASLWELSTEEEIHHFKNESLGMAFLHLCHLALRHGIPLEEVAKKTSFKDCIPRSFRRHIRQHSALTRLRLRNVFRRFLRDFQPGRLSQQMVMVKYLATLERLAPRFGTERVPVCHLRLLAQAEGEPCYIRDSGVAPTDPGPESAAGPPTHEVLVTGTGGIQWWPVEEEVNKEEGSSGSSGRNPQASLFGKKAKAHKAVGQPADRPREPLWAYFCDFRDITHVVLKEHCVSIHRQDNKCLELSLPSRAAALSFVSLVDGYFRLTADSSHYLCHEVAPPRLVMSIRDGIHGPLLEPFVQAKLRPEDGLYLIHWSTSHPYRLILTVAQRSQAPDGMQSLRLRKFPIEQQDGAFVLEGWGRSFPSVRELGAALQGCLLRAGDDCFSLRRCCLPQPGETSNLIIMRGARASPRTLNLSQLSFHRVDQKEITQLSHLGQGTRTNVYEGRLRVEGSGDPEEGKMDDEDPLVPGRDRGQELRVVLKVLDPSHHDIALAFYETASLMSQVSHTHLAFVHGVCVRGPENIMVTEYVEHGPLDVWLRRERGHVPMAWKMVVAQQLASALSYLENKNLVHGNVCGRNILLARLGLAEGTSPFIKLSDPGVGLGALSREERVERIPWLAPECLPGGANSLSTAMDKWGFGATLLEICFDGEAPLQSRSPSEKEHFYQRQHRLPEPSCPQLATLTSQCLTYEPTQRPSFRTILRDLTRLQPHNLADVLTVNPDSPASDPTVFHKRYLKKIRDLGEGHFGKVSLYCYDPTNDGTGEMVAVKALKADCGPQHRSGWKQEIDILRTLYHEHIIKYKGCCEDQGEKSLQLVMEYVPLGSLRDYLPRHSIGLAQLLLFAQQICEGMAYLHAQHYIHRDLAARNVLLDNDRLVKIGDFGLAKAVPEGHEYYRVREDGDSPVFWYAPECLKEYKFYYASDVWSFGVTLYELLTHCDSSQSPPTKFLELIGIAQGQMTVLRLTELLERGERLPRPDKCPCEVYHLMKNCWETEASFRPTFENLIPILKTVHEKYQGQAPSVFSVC
T1 sequence (O60674 whole entry): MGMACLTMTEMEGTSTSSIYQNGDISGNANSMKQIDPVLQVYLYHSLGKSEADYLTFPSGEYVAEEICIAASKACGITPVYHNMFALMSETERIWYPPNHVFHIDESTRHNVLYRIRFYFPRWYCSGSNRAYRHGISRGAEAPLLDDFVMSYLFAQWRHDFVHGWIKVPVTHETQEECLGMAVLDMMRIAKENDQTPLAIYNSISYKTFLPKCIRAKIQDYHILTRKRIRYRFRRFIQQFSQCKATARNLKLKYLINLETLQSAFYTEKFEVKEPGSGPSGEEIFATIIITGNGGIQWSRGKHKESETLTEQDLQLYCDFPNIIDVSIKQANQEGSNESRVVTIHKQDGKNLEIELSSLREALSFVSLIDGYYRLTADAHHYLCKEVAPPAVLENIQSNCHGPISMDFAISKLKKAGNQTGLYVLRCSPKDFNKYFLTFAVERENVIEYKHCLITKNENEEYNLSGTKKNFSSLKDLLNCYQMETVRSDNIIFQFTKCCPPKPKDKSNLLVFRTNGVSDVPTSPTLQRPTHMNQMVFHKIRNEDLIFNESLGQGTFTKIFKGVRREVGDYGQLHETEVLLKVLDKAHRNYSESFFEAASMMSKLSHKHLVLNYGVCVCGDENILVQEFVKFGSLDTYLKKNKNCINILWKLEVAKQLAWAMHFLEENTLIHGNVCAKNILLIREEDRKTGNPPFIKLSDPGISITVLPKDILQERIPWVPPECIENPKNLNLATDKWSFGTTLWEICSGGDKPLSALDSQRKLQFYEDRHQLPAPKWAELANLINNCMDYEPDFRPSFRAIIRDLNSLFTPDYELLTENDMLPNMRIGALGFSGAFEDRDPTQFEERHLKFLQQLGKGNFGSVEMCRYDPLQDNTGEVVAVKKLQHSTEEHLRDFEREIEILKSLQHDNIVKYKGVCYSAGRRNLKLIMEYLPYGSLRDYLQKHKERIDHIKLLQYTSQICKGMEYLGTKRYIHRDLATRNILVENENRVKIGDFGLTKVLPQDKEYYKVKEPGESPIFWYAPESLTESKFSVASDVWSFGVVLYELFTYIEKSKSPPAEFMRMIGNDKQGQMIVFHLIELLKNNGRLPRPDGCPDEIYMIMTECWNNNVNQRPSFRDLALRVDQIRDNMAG

| SMILES | IC50 [1] | Kd [2] | Kd [3] | Kd [4] | S-Score: S(10) at 10 μM [5] |
| --- | --- | --- | --- | --- | --- |
| [2H]C([2H])([2H])n1cnc(Nc2nc(S(=O)(=O)c3ccc(F)cc3)cc3ccccc23)c1 [Example 24, 3-((4-fluorophenyl)sulfonyl)-N-(1-methyl-d3-1H-imidazol-4-yl)isoquinolin-1-amine] | ≤ 100 nM | ≤ 5 nM | ≤ 10 nM | ≤ 10 nM | B (0.3 < B ≦ 0.4) |
| O=S(=O)(c1ccc(F)cc1)c1cc2ccccc2c(Nc2nccs2)n1 [Example 17, N-(3-(4-fluorophenylsulfonyl)isoquinolin-1-yl)thiazol-2-amine] | 100 to 500 nM | ≤ 5 nM | 10 to 100 nM | 10 to 100 nM | A (A ≦ 0.3) |
| Cc1cnc(Nc2nc([S+]([O-])c3ccc(F)cc3)cc3ccccc23)s1 (stereo not shown) [Example 12, N-(3-(4-fluorophenylsulfinyl)isoquinolin-1-yl)-5-methylthiazol-2-amine] | ≤ 100 nM | ≤ 5 nM | 10 to 100 nM | ≤ 10 nM | C (0.4 < C ≦ 0.5) |
| [O-][S+](c1ccc(F)cc1)c1cc2ccccc2c(Nc2nccs2)n1 (stereo not shown) [Example 11, N-(3-(4-fluorophenylsulfinyl)isoquinolin-1-yl)thiazol-2-amine] | ≤ 100 nM | ≤ 5 nM | 10 to 100 nM | – | A (A ≦ 0.3) |
| Cc1coc(Nc2nc([S+]([O-])c3ccc(F)cc3)cc3ccccc23)n1 (racemic) [Example 22, (R,S)—N-(3-(4-fluorophenylsulfinyl)isoquinolin-1-yl)-4-methyloxazol-2-amine] | > 500 nM | > 50 nM | > 100 nM | – | A (A ≦ 0.3) |
| O=S(=O)(c1ccc(F)cc1)c1cc2ccccc2c(Nc2ncco2)n1 [Example 23, N-(3-(4-fluorophenylsulfonyl)isoquinolin-1-yl)oxazol-2-amine] | > 500 nM | > 50 nM | > 100 nM | > 100 nM | A (A ≦ 0.3) |
| COc1cc(Nc2nc(S(=O)(=O)c3ccc(F)cc3)cc3ccccc23)n[nH]1 [Example 15, 3-(4-fluorophenylsulfonyl)-N-(5-methoxy-1H-pyrazol-3-yl)isoquinolin-1-amine] | ≤ 100 nM | ≤ 5 nM | ≤ 10 nM | ≤ 10 nM | D (D > 0.5) |
| Cc1cc(Nc2nc(C(O)c3ccc(F)cc3)cc3ccccc23)n[nH]1 (racemic) [Example 2, (R,S)-(4-fluorophenyl)(1-(5-methyl-1H-pyrazol-3-ylamino)isoquinolin-3-yl)methanol] | ≤ 100 nM | ≤ 5 nM | ≤ 10 nM | ≤ 10 nM | – |
| O=S(=O)(c1ccc(F)cc1)c1cc2ccccc2c(Nc2ncns2)n1 [Example 18, N-(3-(4-fluorophenylsulfonyl)isoquinolin-1-yl)-1,2,4-thiadiazol-5-amine] | 100 to 500 nM | ≤ 5 nM | 10 to 100 nM | ≤ 10 nM | B (0.3 < B ≦ 0.4) |
| Cc1cc(Nc2nc([S+]([O-])c3ccc(F)cc3)cc3ccccc23)n[nH]1 (stereo not shown) [Example 13, 3-(4-fluorophenylsulfinyl)-N-(5-methyl-1H-pyrazol-3-yl)isoquinolin-1-amine] | ≤ 100 nM | ≤ 5 nM | ≤ 10 nM | ≤ 10 nM | D (D > 0.5) |
| Cc1cnc(Nc2nc(S(=O)(=O)c3ccc(F)cc3)cc3ccccc23)s1 [Example 16, N-(3-(4-fluorophenylsulfonyl)isoquinolin-1-yl)-5-methylthiazol-2-amine] | ≤ 100 nM | ≤ 5 nM | ≤ 10 nM | ≤ 10 nM | B (0.3 < B ≦ 0.4) |
| O=S(=O)(c1ccc(F)cc1)c1cc2ccccc2c(Nc2cc[nH]n2)n1 [Example 14, 3-(4-fluorophenylsulfonyl)-N-(1H-pyrazol-3-yl)isoquinolin-1-amine] | ≤ 100 nM | ≤ 5 nM | ≤ 10 nM | ≤ 10 nM | B (0.3 < B ≦ 0.4) |
| O=S(=O)(c1ccc(F)cc1)c1cc2ccccc2c(Nc2cc(O)[nH]n2)n1 [Example 19, 3-(3-(4-fluorophenylsulfonyl)isoquinolin-1-ylamino)-1H-pyrazol-5-ol] | > 500 nM | 5 to 50 nM | > 100 nM | 10 to 100 nM | A (A ≦ 0.3) |
| CCn1cnc(Nc2nc(S(=O)(=O)c3ccc(F)cc3)cc3ccccc23)c1 [Example 25, N-(1-ethyl-1H-imidazol-4-yl)-3-((4-fluorophenyl)sulfonyl)isoquinolin-1-amine] | ≤ 100 nM | ≤ 5 nM | ≤ 10 nM | ≤ 10 nM | C (0.4 < C ≦ 0.5) |
| Cc1cc(Nc2nc(C(=O)c3ccc(F)cc3)cc3ccccc23)n[nH]1 [Example 1, (4-fluorophenyl)(1-(5-methyl-1H-pyrazol-3-ylamino)isoquinolin-3-yl)methanone] | 100 to 500 nM | ≤ 5 nM | 10 to 100 nM | ≤ 10 nM | A (A ≦ 0.3) |
| Cn1cnc(Nc2nc(S(=O)(=O)c3ccc(F)cc3)cc3ccccc23)c1 [Example 20, 3-(4-fluorophenylsulfonyl)-N-(1-methyl-1H-imidazol-4-yl)isoquinolin-1-amine] | ≤ 100 nM | ≤ 5 nM | ≤ 10 nM | ≤ 10 nM | C (0.4 < C ≦ 0.5) |
| Cc1cc(Nc2nc(S(=O)(=O)c3ccc(F)cc3)cc3c(Br)cccc23)n[nH]1 [Example 26, 5-bromo-3-((4-fluorophenyl)sulfonyl)-N-(5-methyl-1H-pyrazol-3-yl)isoquinolin-1-amine] | ≤ 100 nM | ≤ 5 nM | ≤ 10 nM | ≤ 10 nM | A (A ≦ 0.3) |
